Assay results published in patent EP2353599A1, “8-hydroxyquinolines as inhibitors of cathepsin B” (University of Ljubljana, priority 2010, dated 2011).

Assays:
Cathepsin B [1] = target: T1, Cathepsin B (Homo sapiens, UniProt P07858); assay: Cathepsin B exopeptidase activity, enzyme kinetics with substrate Abz-GIVRAK(Dnp)-OH; format: biochemical
Protocol: The effect of 5-nitro-8-hydroxyquinoline on cathepsin B exopeptidase activity was assessed with an exopeptidase substrate Abz-GIVRAK(Dnp)-OH. 5 µl of Abz-GIVRAK(Dnp)-OH (final concentration 1, 3 and 6 µM) and 5 µl of 5-nitro-8-hydroxyquinoline at increasing concentrations were added to wells of a black microplate. 90 µl of human recombinant cathepsin B was then added to a final concentration of 0.25 nM in activation buffer (60 mM acetate buffer, pH 5.0 with 0.1 % PEG, 5 mM DTT and 1.5 mM EDTA). All assay mixtures contained a constant amount of DMSO, i.e. 5 %.
Formation of fluorescent degradation product was continuously monitored at 320 nm ± 20 nm excitation and 420 nm ± 10 nm emission wavelengths on Tecan Safire^2™ at 37°C. Mechanism and the constant of inhibition (Ki) of cathepsin B exopeptidase activity were determined using the graphical method according to Cornish-Bowden (Cornish-Bowden A: A Simple Graphical Method for Determining the Inhibition Constants of Mixed, Uncompetitive and Non-Competitive Inhibitors. Biochem J 1974, 137:143-4.) and using the SigmaPlot® 11, Enzyme Kinetics Module™ 1.3.

Cathepsin B [2] = target: T1, Cathepsin B; assay: Reversibility of cathepsin B inhibition by enzyme kinetics (100-fold dilution of enzyme-inhibitor complex); format: biochemical; conditions: for enzyme inhibition after dilution of the complex: inhibitor at 10-fold IC50, 100-fold dilution
Protocol: Reversibility of cathepsin B inhibition with 5-nitro-8-hydroxyquinoline was determined with three independent experiments. First, we used enzyme kinetics. Cathepsin B at 100-fold its final assay concentration (10 nM) and 5-nitro-8-hydroxyquinoline at 10-fold its IC50 were incubated for 5, 15 and 30 min at room temperature at 2 µl. The enzyme-inhibitor complex was then diluted 100-fold with 5 µM Z-RR-AMC to a final volume of 200 µl, initiating the reaction. Before the dilution of the enzyme-inhibitor complex the enzyme's activity is inhibited by 90 %. In the case of a reversible inhibitor after dilution this percentage is reduced to 9 %. In the case of an irreversible inhibitor the percentage stays unchanged (90 %).

Cathepsin B [3] = target: T1, Cathepsin B; assay: Reversibility with active site probe DCG-04 (labelling, SDS-PAGE, blot); format: binding; conditions: 0.1, 1, 10 and 50 µM inhibitor, 1 h, then 2 µM DCG-04
Source text: Second, the reversibility of 5-nitro-8-hydroxyquinoline was also studied with the active site probe DCG-04. DCG-04 is a derivative of an irreversible epoxysuccinic inhibitor of cysteine proteases E-64 with an additional biotin moiety which enables detection of covalently modified proteases with labelling intensity correlating with enzymatic activity (Greenbaum D, Medzihradszky KF, Burlingame A, Bogyo M: Epoxide electrophiles as activity-dependent cysteine protease profiling and discovery tools. Chem Biol 2000, 7: 569-81.). 1 µg of recombinant cathepsin B in 50 mM Tris, pH 5.5 containing 1 mM DTT, 5 mM MgCl2 and 250 mM sucrose was incubated with 0.1, 1, 10 in 50 µM 5-nitro-8-hydroxyquinoline (diluted from 10 mM DMSO stocks) for 1 h at room temperature. Samples were then labelled with 2 µM DCG-04 for an additional h at room temperature. After boiling in reducing sample buffer for 10 min samples were analyzed by 12.5 % SDS-PAGE and transferred to a nitrocellulose membrane. The latter was then blocked with 0.5 % Tween 20 in PBS overnight at 4 °C and incubated with 1 µg/ml streptavidin-horseradish peroxidase in 0.2 % Tween 20 in PBS for 1 h at room temperature. The membrane was washed five times with 0.2 % Tween 20 in PBS and the spots on the membrane were visualized with 0.5 mg/ml 3,3'-diaminobenzidine and 0.0005 % (v/v) H2O2 in 50 mM Tris, pH 7.5. […]

MCF-10A neoT cell = assay: DQ-collagen IV degradation by fluorescence microscopy; format: cell-based; conditions: 10 µM, 24 h
Protocol: 5-nitro-8-hydroxyquinoline was also tested for the ability to inhibit intracellular and extracellular degradation of DQ-collagen IV. First, inhibitory effect was observed using fluorescence microscopy. Wells of precooled Lab-Tek™ Chambered Coverglass (Nalge Nunc International) were coated with 25 µg/ml of the quenched fluorescent substrate DQ-collagen IV suspended in 40 µl of 100 % Matrigel for 10 min at 4°C. DQ-collagen IV/Matrigel matrix was allowed to polymerize for 40 min at 37°C. 400 µl of MCF-10A neoT cell suspension (1.5x10^5/ml) in growth medium containing 2 % Matrigel and 10 µM of 5-nitro-8-hydroxyquinoline were plated onto gelled Matrigel. After 24 h incubation at 37°C with 5 % CO2 the samples were monitored for fluorescent degradation products using Olympus IX 81 motorized inverted microscope and CellR software. CA-074 and CA-074Me were used as positive controls.

MCF-10A neoT cells = assay: Intracellular DQ-collagen IV degradation by flow cytometry; format: cell-based; conditions: 50 µM, shift in fluorescence intensity
Protocol: Inhibition of intracellular DQ-collagen IV degradation was observed by flow cytometry by a shift in fluorescence intensity. 5 × 10^4 MCF-10A neoT cells in complete medium were plated into the wells of a 24-well plate and allowed to attach over night. Afterwards, the medium was replaced with 500 µl of serum free medium with 5-nitro-8-hydroxyquinoline, CA-074 or CA-074Me (50 µM). After 2 h incubation the medium was again replaced with serum free medium containing inhibitors (50 µM) and DQ-collagen IV (5 µg/ml). DMSO was used as a control. For the experiment only viable cells were selected using propidium iodide. The measurements were performed on a FACS Calibur instrument (Beckton Dickinson, Inc.).

Mechanism of inhibition (Cathepsin B [1]; cathepsin B exopeptidase activity): non-competitive
Ki (Cathepsin B [1]; exopeptidase activity, substrate Abz-GIVRAK(Dnp)-OH, pH 5.0, 37°C): 220 ± 13.3 µM
inhibits endopeptidase activity more potently than exopeptidase activity (Cathepsin B [1]; ratio of exopeptidase Ki to endopeptidase Ki): 5.8 times
enzyme inhibition after dilution of the complex (Cathepsin B [2]; 5 min incubation): 21.7 ± 2.2%
enzyme inhibition after dilution of the complex (Cathepsin B [2]; 15 min incubation): 25.2 ± 3.5%
enzyme inhibition after dilution of the complex (Cathepsin B [2]; 30 min incubation): 27.6 ± 3.2%
calculated value of inhibition (Cathepsin B [2]; expected inhibition after dilution considering the Hill coefficient): 15%
SMILES: O=[N+]([O-])c1ccc(O)c2ncccc12 [Compound 1, 5-nitro-8-hydroxyquinoline]
intensity of spots (DCG-04 labelling) versus DMSO control (Cathepsin B [3]): did not differ significantly from the DMSO control
inhibition of DQ-collagen IV degradation (fluorescence microscopy) (MCF-10A neoT cell): inhibited both intracellular and extracellular DQ-collagen IV degradation
inhibition of intracellular DQ-collagen IV degradation (MCF-10A neoT cells): significantly inhibits
